In PubChem BioAssay (NCI) one finds TGI and GI50 data, which are given here for 14 compounds.

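Compound exposure: 48 hours, 5 concentrations, 96-well plates. Abbreviation: GI50, concentration required for 50% inhibition of growth. TGI marks complete inhibition of growth.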

Common to all, as to test: NCI anticancer screen, dose series, 48 h
In experiment [1] the test system is M19-MEL melanoma.
The subject of experiment [2] is SN12C renal.
Experiment [3] relates to KM20L2 colon.
Experiment [4] relates to HOP-62 NSCLC.
In experiment [5] the test system is SF-268 CNS.
In experiment [6] the test system is SF-539 CNS.
For experiment [7], the system named is UO-31 renal.
For experiment [8], the system named is EKVX NSCLC.
Experiment [9] has as its system SK-MEL-2 melanoma.
Experiment [10] concerns MCF7 breast.
In experiment [11] the test system is NCI-H226 lung.

Turning to `CCC1=C(C(C)=O)[C@@H]2CCCCC[C@@H](C(=O)OC)C2C1=O` (stereo partly drawn), the TGI in [1], in [2], in experiment [3], in experiment [4], in experiment [5] and in experiment [6] was above 100 µM each time. The TGI in [7], in experiment [8] and in experiment [9] was above 100 µM each time.
Consider `CCCCOc1ccc(OCCCCCCCCCC[N+](C)(C)C)cc1`, for which the TGI in experiment [2] came out at 12.2 µM; in experiment [3], 3.87 µM; in experiment [10], 14.8 µM; in [4], 13.7 µM; in [11] it was 15.2 µM; in experiment [5] it was 13.9 µM. For the same compound, the TGI in [6] worked out at 14.3 µM; in experiment [7], 23 µM; in [8] it was 46 µM; in experiment [9], 5 µM.
As to `Cc1cc(C)nc(NS(=O)(=O)c2ccc(Nc3c4ccccc4nc4c(C(=O)N5CCN(CCOS(C)(=O)=O)CC5)cccc34)cc2)n1`, the TGI in experiment [1], in experiment [2], in experiment [3], in experiment [4], in experiment [11] and in experiment [5] was above 100 µM each time. Moreover, the TGI in experiment [6], in experiment [7] and in [9] was above 100 µM each time.
As to `Cc1ccc2c(c1)-c1c(C#N)c(N)nc(-c3ccc(Cl)cc3)c1CCS2(=O)=O`, the TGI was above 100 µM in experiment [2]; above 100 µM in experiment [10]; above 100 µM in experiment [4]; above 100 µM in experiment [11]; above 100 µM in experiment [5]; 37.1 µM in experiment [6]. The TGI in experiment [7], in experiment [8] and in [9] was above 100 µM throughout.
As to `CCC(O)(Cc1ccc(OC)cc1)c1ccc(OC)cc1` (stereo not drawn), the TGI in experiment [2], in experiment [10], in experiment [4], in [11], in experiment [5] and in experiment [6] was above 100 µM in each case. In addition, the TGI in experiment [7], in [8] and in experiment [9] was above 100 µM throughout.
As to `COc1cc(C(c2c(O)c3ccccc3oc2=O)c2c(O)c3ccccc3oc2=O)cc(Br)c1O`, the TGI in [2] was determined as 29.8 µM; in [10], 31.3 µM; in [4] it was 45.8 µM; in experiment [11], 49.1 µM; in [5], 30 µM; in experiment [6], 33.7 µM. Also, the values for the TGI in experiment [7], in [8] and in experiment [9] were 31 µM, 34.2 µM and 42.5 µM, respectively.
For the compound `O=C1NC2CCCCC2N=C1CC(=O)c1ccc(Br)cc1` (stereo not drawn), the TGI in experiment [2] was above 100 µM; in experiment [10] it was above 100 µM; in experiment [4], above 100 µM; in [11], 81.2 µM; in [5] it was above 100 µM; in [6] it was above 100 µM. Besides, the TGI in experiment [7] was above 100 µM; in experiment [8] it was 93.8 µM; in experiment [9], above 100 µM.
For the compound `CN(C)CCCNC(=O)c1cc(NC(=O)c2cc(NC(=O)CCCn3c4ccccc4c4ccccc43)cn2C)cn1C`, the TGI was 33.2 µM in [2]; 39 µM in experiment [10]; 30.9 µM in experiment [4]; 39 µM in [11]; 41.6 µM in experiment [5]; 62.6 µM in experiment [6]. The results for the TGI in [7], in experiment [8] and in experiment [9] were above 58.2 µM, 46.2 µM and above 79.9 µM, respectively. Also, in [11], the GI50 was 9.26 µM.
`O=c1c(Cc2ccc(Cl)cc2)nnc2sc(-c3ccc(-c4ccc(F)c(Cl)c4)o3)nn12`: the TGI in [2], in experiment [10], in experiment [4], in [11], in experiment [5] and in experiment [6] was above 100 µM throughout. Further, the TGI in [7], in experiment [8] and in experiment [9] was above 100 µM each time.
Consider `CC(C)c1cccc(C(C)C)c1NC(=O)/C(CC(=O)CC(c1ccccc1)c1c(O)c2ccccc2oc1=O)=N/O` (stereo not drawn), for which the TGI in experiment [2], in experiment [10], in [4], in experiment [11], in experiment [5] and in [6] was above 100 µM each time. Further, the TGI in experiment [7], in [8] and in experiment [9] was above 100 µM throughout.
For the compound `CC1CCC2(NC1)OC1CC3C4CC=C5CC(OC6OC(CO)C(OC7OC(C)C(O)C(O)C7O)C(O)C6OC6OC(C)C(O)C(O)C6O)CCC5(C)C4CCC3(C)C1C2C` (stereo not drawn), the TGI in [2] is 4.83 µM; in experiment [10] it was 4.88 µM; in experiment [4], above 100 µM; in experiment [11], 7.97 µM; in [5], 4.05 µM; in [6], 8.75 µM. In addition, the TGI in [7] came out at 21.1 µM; in experiment [8], 6.4 µM; in [9] it was 9.07 µM.
With `CN(C)/N=C(/c1nc2ccc(Cl)cc2[nH]c1=O)C(O)c1ccc(C(O)/C(=N\N(C)C)c2nc3ccc(Cl)cc3[nH]c2=O)cc1` (stereo not drawn), the TGI in [1], in experiment [2], in experiment [3], in experiment [4], in experiment [5] and in [6] was above 100 µM each time. In addition, the TGI in experiment [7], in experiment [8] and in experiment [9] was above 100 µM in each case.
Consider `O=c1nc2c(c(-c3ccc(Br)cc3)[nH]1)COC/C2=C\c1ccc(Br)cc1`, for which the TGI in [2], in [10], in experiment [4], in experiment [11], in experiment [5] and in experiment [6] was above 50 µM each time. Besides, the TGI in [7], in experiment [8] and in experiment [9] was above 50 µM throughout.
Turning to `N#CC1(O)CCCCCCCCCCC1`, the TGI in experiment [2], in experiment [10], in [4], in experiment [11], in experiment [5] and in experiment [6] was above 100 µM throughout. In addition, the TGI in [7], in [8] and in experiment [9] was above 100 µM each time.
